In one assay the test system is GLP-1R+ HEK293T cells. As to the kind of experiment: estrone-3-sulfate ELISA in cell lysate. Type of assay: cell-based. Conditions: 1 μM, 2 h.
The test system of assay [1] is G-protein coupled estrogen receptor 1 (GPER1). As to the kind of experiment: cAMP production in GPER1+ HEK293T cells. Type of assay: cell-based.
Assay [2] addresses T1, hGLP-1R (Homo sapiens, UniProt P43220). Briefly: GLP-1R-Rluc8 internalization away from GFP-CAAX, BRET. Type of assay: cell-based, human (hGLP-1R) in HEK293T cells. For orientation: BRET reads energy transfer from a luciferase to a nearby fluorophore.
Another assay has as its target T2, ERα (Homo sapiens, UniProt P03372).
T2 sequence (P03372 1-595): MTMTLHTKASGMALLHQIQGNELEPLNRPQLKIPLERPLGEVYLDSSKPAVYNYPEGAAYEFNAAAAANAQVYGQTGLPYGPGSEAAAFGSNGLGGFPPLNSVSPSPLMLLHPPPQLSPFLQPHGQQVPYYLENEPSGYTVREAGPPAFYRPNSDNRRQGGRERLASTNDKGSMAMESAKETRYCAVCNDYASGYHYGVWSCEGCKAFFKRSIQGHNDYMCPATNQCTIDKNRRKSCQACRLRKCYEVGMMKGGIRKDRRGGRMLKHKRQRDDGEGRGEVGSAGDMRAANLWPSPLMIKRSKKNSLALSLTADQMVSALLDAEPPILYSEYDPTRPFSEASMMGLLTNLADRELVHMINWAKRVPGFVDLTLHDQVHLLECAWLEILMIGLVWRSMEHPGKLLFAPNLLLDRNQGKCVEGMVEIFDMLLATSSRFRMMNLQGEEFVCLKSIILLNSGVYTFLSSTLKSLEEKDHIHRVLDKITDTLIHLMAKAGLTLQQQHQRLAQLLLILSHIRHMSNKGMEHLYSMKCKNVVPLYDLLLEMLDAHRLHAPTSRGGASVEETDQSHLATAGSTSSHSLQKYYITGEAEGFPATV
As to the kind of experiment: Estrogen response element (ERE) luciferase reporter. Type of assay: cell-based, human (hERα) in HEK293T cells. Conditions: bafilomycinA1 (5 μM) or EN6 (50 μM) with E2 or E2-3-ether; 24 h. (In general: In a reporter assay the amount or activity of a reporter protein is the signal.)

Assay [3] has as its system GLP-1R / Rab5+ early endosomes. As to the kind of experiment: GLP-1R colocalization with Rab5+ early endosomes, BRET. The note with it: with GLP-1 (7-36)amide (1 μM).
Assay [4] deals with T1, hGLP-1R. As to the kind of experiment: Nluc-mGαs recruitment to GLP-1R-GFP, BRET. Type of assay: cell-based, human (hGLP-1R) in HEK293T cells.
The target of assay [5] is T1, hGLP-1R. Briefly: cAMP production, CAMYEL BRET. Type of assay: cell-based, human (hGLP-1R) in HEK293T cells. In general terms: cAMP levels reflect the balance of adenylyl cyclase and phosphodiesterase activity.
The target of assay [6] is T1, hGLP-1R. Briefly: Nluc-mGαq recruitment to GLP-1R-GFP, BRET. Type of assay: cell-based, human (hGLP-1R) in HEK293T cells.
The target of assay [7] is T1, hGLP-1R. Briefly: β-arrestin-2-Rluc8 recruitment to GLP-1R-GFP, BRET. Type of assay: cell-based, human (hGLP-1R) in HEK293T cells.
The target of assay [8] is T1, hGLP-1R. Briefly: Nluc-mGαs recruitment to GLP-1R, BRET, MIN6. Type of assay: cell-based, human (hGLP-1R) in mouse MIN6 cells.
The target in assay [9] is T1, hGLP-1R. Briefly: cAMP production, BRET, MIN6. Type of assay: cell-based, human (hGLP-1R) in mouse MIN6 cells.
For assay [10], the target named is T1, hGLP-1R. As to the kind of experiment: Nluc-mGαq recruitment to GLP-1R, BRET, MIN6. Type of assay: cell-based, human (hGLP-1R) in mouse MIN6 cells.
For assay [11], the target named is T1, hGLP-1R. Briefly: GLP-1R-Rluc8 internalization, BRET, MIN6. Type of assay: cell-based, human (hGLP-1R) in mouse MIN6 cells.
Assay [12] addresses T1, hGLP-1R. As to the kind of experiment: β-arrestin-2-Rluc8 recruitment, BRET, MIN6. Type of assay: cell-based, human (hGLP-1R) in mouse MIN6 cells.
In assay [13] the target is T1, hGLP-1R. Briefly: Nluc-mGαs recruitment to GLP-1R, BRET, CLU177. Type of assay: cell-based, human (hGLP-1R) in mouse CLU177 cells.
Assay [14] has as its target T1, hGLP-1R. Briefly: cAMP production, BRET, CLU177. Type of assay: cell-based, human (hGLP-1R) in mouse CLU177 cells.
Assay [15] concerns the target T1, hGLP-1R. Briefly: GLP-1R-Rluc8 internalization, BRET, CLU177. Type of assay: cell-based, human (hGLP-1R) in mouse CLU177 cells.
The target of assay [16] is T1, hGLP-1R. As to the kind of experiment: β-arrestin-2-Rluc8 recruitment, BRET, CLU177. Type of assay: cell-based, human (hGLP-1R) in mouse CLU177 cells.
The subject of the next assay is ERα and SP-1. Briefly: Proximity ligation assay (PLA) ERα / SP-1. Type of assay: cell-based, human (hERα) in HEK293T cells. The note with it: 1 μM; HEK293T overexpressing hGLP-1R and ERα.

T1 sequence (P43220 24-463): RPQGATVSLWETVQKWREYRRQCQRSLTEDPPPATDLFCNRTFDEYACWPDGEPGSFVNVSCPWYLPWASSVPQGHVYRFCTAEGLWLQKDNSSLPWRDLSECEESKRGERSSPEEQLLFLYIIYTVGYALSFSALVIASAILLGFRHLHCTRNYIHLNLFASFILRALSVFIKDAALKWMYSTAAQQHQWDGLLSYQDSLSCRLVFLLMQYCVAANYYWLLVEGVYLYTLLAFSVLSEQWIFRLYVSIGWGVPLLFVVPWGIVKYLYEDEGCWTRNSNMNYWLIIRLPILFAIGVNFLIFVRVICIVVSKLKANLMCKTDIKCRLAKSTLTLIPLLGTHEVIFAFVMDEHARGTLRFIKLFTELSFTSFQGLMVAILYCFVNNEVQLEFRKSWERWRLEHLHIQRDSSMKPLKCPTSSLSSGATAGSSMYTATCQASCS

In the case of `C[C@]12CC[C@@H]3c4ccc(OCC(=O)O)cc4CC[C@H]3[C@@H]1CC[C@@H]2O` [E2-3-ether, estradiol 3-carboxymethyl ether], the estrone-3-sulfate levels result with GLP-1R+ HEK293T cells was “significantly increased estrone-3-sulfate levels”.

In the case of `CC(=O)c1ccc2c(c1)C1C=CCC1C(c1cc3c(cc1Br)OCO3)N2` (centres unmarked) [G1], in assay [1], the “cAMP production via GPER1” value is listed as “did not observe E2-or G1-driven cAMP production”.

As to `CO/C1=C\C(C)=C\[C@@H](C)[C@@H](O)[C@@H](C)C/C(C)=C/C=C/[C@H](OC)[C@@H]([C@@H](C)[C@@H](O)[C@H](C)[C@@]2(O)C[C@@H](O)[C@H](C)[C@@H](C(C)C)O2)OC1=O` [bafilomycinA1], the “GLP-1R internalization on bafilomycinA1 pre/co-treatment” value at hGLP-1R [2] (5 μM, with GLP-1 (7-36)amide (1 μM)) is “without affecting receptor internalization”. Moreover, on ERα, the “off-target effect on stimulated ERα activation” value is given as “did not have off-target effects on stimulated ERα activation by E2 or E2-3-ether”. In assay [3] (5 μM), the “GLP-1R retention in Rab5+ early endosomes on bafilomycinA1 pre/co-treatment” value is “significantly increases GLP-1R retention in Rab5^+ early endosomes”.

Turning to `C=CC(=O)Nc1cc(NC(=O)c2cnn(-c3ccccc3F)c2)ccc1F` [EN6], on ERα, the “off-target effect on stimulated ERα activation” value is recorded as “did not have off-target effects on stimulated ERα activation by E2 or E2-3-ether”. The “endosomal trafficking dynamics on EN6 treatment” value in [3] (50 μM) was “without altering endosomal trafficking dynamics”.

With `CC[C@H](C)[C@H](NC(=O)[C@H](Cc1ccccc1)NC(=O)[C@H](CCC(=O)O)NC(=O)[C@H](CCCCN)NC(=O)[C@H](C)NC(=O)[C@H](C)NC(=O)[C@H](CCC(N)=O)NC(=O)[C@H](CCC(=O)O)NC(=O)[C@H](CCC(=O)O)NC(=O)[C@H](CC(C)C)NC(=O)[C@H](Cc1ccc(O)cc1)NC(=O)[C@H](CO)NC(=O)[C@H](CO)NC(=O)[C@@H](NC(=O)[C@H](CC(=O)O)NC(=O)[C@H](CO)NC(=O)[C@@H](NC(=O)[C@H](Cc1ccccc1)NC(=O)[C@@H](NC(=O)CNC(=O)[C@H](CCC(=O)O)NC(=O)C(C)(C)NC(=O)[C@@H](N)Cc1c[nH]cn1)[C@@H](C)O)[C@@H](C)O)C(C)C)C(=O)N[C@@H](C)C(=O)N[C@@H](Cc1c[nH]c2ccccc12)C(=O)N[C@@H](CC(C)C)C(=O)N[C@H](C(=O)N[C@@H](CCCCN)C(=O)NCC(=O)NCC(=O)N1CCC[C@H]1C(=O)N[C@@H](CO)C(=O)N[C@@H](CO)C(=O)NCC(=O)N[C@@H](C)C(=O)N1CCC[C@H]1C(=O)N1CCC[C@H]1C(=O)N1CCC[C@H]1C(=O)N[C@@H](CO)C(=O)N[C@@H](CCCCNC(=O)COc1ccc2c(c1)CC[C@@H]1[C@@H]2CC[C@]2(C)[C@@H](O)CC[C@@H]12)C(N)=O)C(C)C` [GLP-1-CEX/E2], the 50% effective concentration (EC50) was 44.6 nM on hGLP-1R [4]; 16.8 nM at hGLP-1R [5]; 47.8 nM on hGLP-1R [6]; 5.01 nM at hGLP-1R [2]; 29.5 nM on hGLP-1R [7]; 143 nM at hGLP-1R [8]. In addition, the concentration for a half-maximal effect (EC50) at hGLP-1R [9] was 0.963 nM; on hGLP-1R [10], 245 nM; on hGLP-1R [11], 158 nM; on hGLP-1R [12], 39.2 nM; on hGLP-1R [13] it was 62.2 nM; at hGLP-1R [14], 0.0316 nM. The 50% effective concentration (EC50) turned out to be 142 nM at hGLP-1R [15] and 162 nM at hGLP-1R [16]. In addition, the Emax on hGLP-1R [4] (HEK-293T) was determined as 94.2 ± 5.2%; on hGLP-1R [5] (HEK-293T), 111 ± 5.3%; at hGLP-1R [6] (HEK-293T) it was 94 ± 9%; at hGLP-1R [2] (HEK-293T), 90.9 ± 1.5%; at hGLP-1R [7] (HEK-293T), 100 ± 2.6%; at hGLP-1R [8] (MIN6) it was 95.4 ± 7.7%. Moreover, the Emax at hGLP-1R [9] (MIN6) came out at 99.1 ± 4%; on hGLP-1R [10] (MIN6), 76.7 ± 12.2%; on hGLP-1R [11] (MIN6) it was 98.6 ± 9.3%; on hGLP-1R [12] (MIN6), 99 ± 4.9%; on hGLP-1R [13], 103 ± 5.7%; on hGLP-1R [14], 106 ± 6.2%. Further, the maximal effect (Emax) on hGLP-1R [15] turned out to be 97.4 ± 14.8%; on hGLP-1R [16], 95.9 ± 4.1%.

For `C[C@]12CC[C@@H]3c4ccc(O)cc4CC[C@H]3[C@@H]1CC[C@@H]2O` [E2, 17β-estradiol], the “cAMP production via GPER1” value in assay [1] was “did not observe E2-or G1-driven cAMP production”. Further, the “PLA: proximal localization of ERα and SP-1” value with ERα and SP-1 was “significantly increase the proximal localization of ERα and the nucleus-localized transcription factor specificity protein-1 (SP-1) relative to GLP-1 (7-36)amide”.

As to `C=C[C@@]1(C)CC(=O)[C@]2(O)[C@@]3(C)[C@@H](O)CCC(C)(C)[C@@H]3[C@H](O)[C@H](OC(C)=O)[C@@]2(C)O1` [forskolin, reference compound], the “saturation of the cAMP sensor” value on hGLP-1R [5] (forskolin 50 μM, hGLP-1R+ HEK293T) is reported as “Saturation of the cAMP sensor was not achieved”.

What is called EC50 is the midpoint of the concentration-response curve. Read a high EC50 as a need for much substance. The term Emax denotes the size of the effect at its maximum, as opposed to the concentration needed.

(Values after paper PMC12032945, “Estrogenic activity of E2-conjugated GLP-1 is mediated by intracellular endolysosomal acidification and estrone metabolism” (Molecular Metabolism, 2025).)
